Test results as given in patent US8329695B2, “Crystalline form of the free base N-[trans-4-[4-(cyclopropylmethyl)-1-piperazinyl]cyclohexyl]-4-[[(7r)-7-ethyl-5,6,7,8-tetrahydro-5-methyl-8-(1-methylethyl)-6-oxo-2-pteridinyl]amino]-3-methoxy-benzamide” (Boehringer Ingelheim International GmbH, priority 2007, dated 2012).

Tests used:
Type in all cases: physicochemical
[1] = Solid state stability of the trihydrochloride salt forms; details: humidity lowered down to 10% r.h.
Source text: Under standard conditions the crystalline trihydrochloride salt form of N-[trans-4-[4-(cyclopropylmethyl)-1-piperazinyl]cyclohexyl]-4-[[(7R)-7-ethyl-5,6,7,8-tetrahydro-5-methyl-8-(1-methylethyl)-6-oxo-2-pteridinyl]amino]-3-methoxy-benzamide is present in the form of an hydrate and is obtainable after drying with a changing stoichiometry (1-3 water equivalents). The hydrate with a stoichiometry close to a trihydrate seems to be the stable hydrated form under ambient conditions and can be obtained after conditioning of the dried material. The crystal water is tightly bound.
The respective anhydrous form, obtained by heating a sample up to 140° C., is not stable.

[2] = Intrinsic dissolution rate in aqueous media (rotating disc method); details: 37° C., 200 rpm
Procedure: The intrinsic dissolution rate of this crystalline form of the compound […] which maintains a constant surface area. 5 mg drug substance is compressed to form a disc at 356.1 N for 60 s. These discs are mounted to specially designed sample holders which fit into a Sotax dissolution tester. The dissolution media (37° C.) are stirred at 200 rpm. Samples are automatically withdrawn every second minute from the dissolution vessel and assayed via UV spectrophotometry. The intrinsic dissolution rate expressed in μg/cm^2/min is calculated using the slope of the concentration versus time plot and from the linear portion of the slope of the dissolution curve, volume of dissolution medium (35 ml) and area (diameter: 2 mm) of the exposed disk.

[3] = Hygroscopical behaviour, water sorption isotherms (DVS-1); details: 25° C.
Procedure: To study the hygroscopical behaviour of this material, sorption isotherms are registered on a DVS-1 water sorption monitor from Surface Measurement Systems. Adsorption and desorption isotherms are performed at 25° C. with 10% r.h. step intervals ranging from 10% r.h. up to 90% r.h.

[4] = Solubility in aqueous media
Source text: Solubility in Aqueous Media

With `CC[C@@H]1C(=O)N(C)c2cnc(Nc3ccc(C(=O)N[C@H]4CC[C@H](N5CCN(CC6CC6)CC5)CC4)cc3OC)nc2N1C(C)C.Cl.Cl.Cl.O.O.O` [formula (I) trihydrochloride, N-[trans-4-[4-(cyclopropylmethyl)-1-piperazinyl]cyclohexyl]-4-[[(7R)-7-ethyl-5,6,7,8-tetrahydro-5-methyl-8-(1-methylethyl)-6-oxo-2-pteridinyl]amino]-3-methoxy-benzamide trihydrochloride trihydrate] the “weight loss on lowering the humidity” value [1] was “does not result in a significant weight loss”.

`CC[C@@H]1C(=O)N(C)c2cnc(Nc3ccc(C(=O)N[C@H]4CC[C@H](N5CCN(CC6CC6)CC5)CC4)cc3OC)nc2N1C(C)C` [formula (I), N-[trans-4-[4-(cyclopropylmethyl)-1-piperazinyl]cyclohexyl]-4-[[(7R)-7-ethyl-5,6,7,8-tetrahydro-5-methyl-8-(1-methylethyl)-6-oxo-2-pteridinyl]amino]-3-methoxy-benzamide] gave a dissolution rate ([2]; pH of aqueous medium 1.1) of 6600 μg/cm^2/min, a dissolution rate ([2]; pH of aqueous medium 3.1) of 2760 μg/cm^2/min and a dissolution rate ([2]; pH of aqueous medium 4.1) of 1810 μg/cm^2/min. For the same compound, the dissolution rate ([2]; pH of aqueous medium 5.0) was 1390 μg/cm^2/min, the dissolution rate ([2]; pH of aqueous medium 6.1) was 1180 μg/cm^2/min and the dissolution rate ([2]; pH of aqueous medium 7.5) was under 50 μg/cm^2/min. The “hygroscopicity (in words)” value ([3]; 10% r.h. up to 90% r.h.) was “not hygroscopic”, the “reversibility of the water-uptake” value ([3]; adsorption and desorption isotherms) was “completely reversible” and the uptake of water ([3]; over the range 10-90% r.h.) was “approx. 0.7%”. For the same compound, the solubility ([4]; Sörensen buffer, aqueous buffer, thermodynamic from solid, Sörensen pH 9.0, pH of the saturated solution 9.2) was 3 µg/mL, the solubility ([4]; Sörensen buffer, aqueous buffer, thermodynamic from solid, Sörensen pH 10, pH of the saturated solution 9.9) was 7 µg/mL and the solubility ([4]; Sörensen buffer, aqueous buffer, thermodynamic from solid, Sörensen pH 11, pH of the saturated solution 10.5) was 9 µg/mL. It also gave a solubility ([4]; aqueous buffer, thermodynamic from solid, McIlvaine buffer pH 2.2, pH of the saturated solution 2.8) of over 10000 µg/mL, a solubility ([4]; aqueous buffer, thermodynamic from solid, McIlvaine buffer pH 3.0, pH of the saturated solution 3.6) of over 10000 µg/mL and a solubility ([4]; aqueous buffer, thermodynamic from solid, McIlvaine buffer pH 4.0, pH of the saturated solution 4.6) of over 10000 µg/mL. It also gave a solubility ([4]; aqueous buffer, thermodynamic from solid, McIlvaine buffer pH 5.0, pH of the saturated solution 5.5) of over 10000 µg/mL, a solubility ([4]; aqueous buffer, thermodynamic from solid, McIlvaine buffer pH 6.0, pH of the saturated solution 6.3) of over 10000 µg/mL and a solubility ([4]; aqueous buffer, thermodynamic from solid, McIlvaine buffer pH 7.0, pH of the saturated solution 7.2) of over 10000 µg/mL. The solubility ([4]; aqueous buffer, thermodynamic from solid, McIlvaine buffer pH 7.4, pH of the saturated solution 7.4) was 2500 µg/mL, the “solubility profile in aqueous media (conclusion in words)” value ([4]; aqueous media of Table 1) was “good solubility profile” and the solubility ([4]; pH 1.1, simulated gastric fluid, thermodynamic from solid, medium 0.1 N HCl, pH of the saturated solution 1.1) was over 10000 µg/mL. It also gave a solubility ([4]; pH 6.8, simulated gastric fluid, thermodynamic from solid, medium 0.01 N HCl, pH of the saturated solution 6.8) of 7600 µg/mL, a solubility ([4]; pH 9.6, thermodynamic from solid, medium water, pH of the saturated solution 9.6) of 110 µg/mL and a solubility ([4]; pH 11.7, aqueous buffer, thermodynamic from solid, 0.01 N NaOH, pH of the saturated solution 11.7) of 8 µg/mL. For the same compound, the solubility ([4]; pH 12.8, aqueous buffer, thermodynamic from solid, 0.01 N NaOH (second line), pH of the saturated solution 12.8) was 3 µg/mL, the solubility ([4]; phosphate buffer, aqueous buffer, thermodynamic from solid, Phosphate pH 6.0, pH of the saturated solution 6.5) was over 10000 µg/mL and the solubility ([4]; phosphate buffer, aqueous buffer, thermodynamic from solid, Phosphate pH 7.0, pH of the saturated solution 7.3) was 10000 µg/mL. For the same compound, the solubility ([4]; phosphate buffer, aqueous buffer, thermodynamic from solid, Phosphate pH 8.0, pH of the saturated solution 8.1) was 36 µg/mL.
